Results taken from ChEMBL document CHEMBL1201862, “PubChem BioAssay data set” (2004).
Counter-ions that a name gives are not always drawn. The source made the active and inactive calls.

Tests used:
Paired box protein Pax-8 = Paired box protein Pax-8 (Homo sapiens, UniProt Q06710); assay: PAX8 transcriptional activity inhibition in RMG-I – RMG-I cells, luciferase, cherry-pick, dose response (AID 687027); assay type: functional, cell-based;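 note: luciferase reporter driven by Pax8 target thyroperoxidase promoter measured by SteadyGlo luminescence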
[1] = rise of 2N DNA cells, HeLa – IC50, dose response (AID 1117349); assay type: functional, cell-based
[2] = rise of 4N DNA cells, HeLa – IC50, dose response (AID 1117351); assay type: functional, cell-based
Large T antigen = Large T antigen (Simian virus 40, UniProt P03070); assay type: functional, Betapolyomavirus macacae;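 note: Confirmatory-stage PubChem screen for compounds that inhibit SV40 T antigen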
[3] = biological target: Glucose-6-phosphate 1-dehydrogenase (Homo sapiens, UniProt P11413); assay: inhibition of Homo sapiens G6PD, dose series – biochemical, fluorescence, selectivity assay for P. falciparum G6PD inhibitor project, dose response (AID 504792); assay type: functional
Genome polyprotein = Genome polyprotein (dengue virus type 2, UniProt P29990); assay: flavivirus cap methylation enzyme inhibition – biochemical, confirmation dose response, primary screen (AID 588689); assay type: functional
Caspase-6 = biological target: T1, Caspase-6 (Homo sapiens, UniProt P55212); assay: inhibition of CASP6 peptide cleavage – biochemical, VEID-R110 fluorescence, cherry-pick, dose response (AID 720632)
T1 sequence (P55212 whole entry): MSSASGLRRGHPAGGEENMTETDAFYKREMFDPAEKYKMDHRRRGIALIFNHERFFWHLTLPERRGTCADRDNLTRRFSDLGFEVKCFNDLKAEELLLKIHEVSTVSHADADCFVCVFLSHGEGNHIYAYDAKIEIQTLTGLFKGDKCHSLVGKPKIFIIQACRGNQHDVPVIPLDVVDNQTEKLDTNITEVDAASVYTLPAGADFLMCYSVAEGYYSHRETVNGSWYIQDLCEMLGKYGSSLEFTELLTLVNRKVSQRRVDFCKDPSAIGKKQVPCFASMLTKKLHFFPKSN

[4] = biological target: T2, Histone-lysine N-methyltransferase NSD2 (Homo sapiens, UniProt O96028); assay type: biochemical
T2 sequence (O96028 whole entry): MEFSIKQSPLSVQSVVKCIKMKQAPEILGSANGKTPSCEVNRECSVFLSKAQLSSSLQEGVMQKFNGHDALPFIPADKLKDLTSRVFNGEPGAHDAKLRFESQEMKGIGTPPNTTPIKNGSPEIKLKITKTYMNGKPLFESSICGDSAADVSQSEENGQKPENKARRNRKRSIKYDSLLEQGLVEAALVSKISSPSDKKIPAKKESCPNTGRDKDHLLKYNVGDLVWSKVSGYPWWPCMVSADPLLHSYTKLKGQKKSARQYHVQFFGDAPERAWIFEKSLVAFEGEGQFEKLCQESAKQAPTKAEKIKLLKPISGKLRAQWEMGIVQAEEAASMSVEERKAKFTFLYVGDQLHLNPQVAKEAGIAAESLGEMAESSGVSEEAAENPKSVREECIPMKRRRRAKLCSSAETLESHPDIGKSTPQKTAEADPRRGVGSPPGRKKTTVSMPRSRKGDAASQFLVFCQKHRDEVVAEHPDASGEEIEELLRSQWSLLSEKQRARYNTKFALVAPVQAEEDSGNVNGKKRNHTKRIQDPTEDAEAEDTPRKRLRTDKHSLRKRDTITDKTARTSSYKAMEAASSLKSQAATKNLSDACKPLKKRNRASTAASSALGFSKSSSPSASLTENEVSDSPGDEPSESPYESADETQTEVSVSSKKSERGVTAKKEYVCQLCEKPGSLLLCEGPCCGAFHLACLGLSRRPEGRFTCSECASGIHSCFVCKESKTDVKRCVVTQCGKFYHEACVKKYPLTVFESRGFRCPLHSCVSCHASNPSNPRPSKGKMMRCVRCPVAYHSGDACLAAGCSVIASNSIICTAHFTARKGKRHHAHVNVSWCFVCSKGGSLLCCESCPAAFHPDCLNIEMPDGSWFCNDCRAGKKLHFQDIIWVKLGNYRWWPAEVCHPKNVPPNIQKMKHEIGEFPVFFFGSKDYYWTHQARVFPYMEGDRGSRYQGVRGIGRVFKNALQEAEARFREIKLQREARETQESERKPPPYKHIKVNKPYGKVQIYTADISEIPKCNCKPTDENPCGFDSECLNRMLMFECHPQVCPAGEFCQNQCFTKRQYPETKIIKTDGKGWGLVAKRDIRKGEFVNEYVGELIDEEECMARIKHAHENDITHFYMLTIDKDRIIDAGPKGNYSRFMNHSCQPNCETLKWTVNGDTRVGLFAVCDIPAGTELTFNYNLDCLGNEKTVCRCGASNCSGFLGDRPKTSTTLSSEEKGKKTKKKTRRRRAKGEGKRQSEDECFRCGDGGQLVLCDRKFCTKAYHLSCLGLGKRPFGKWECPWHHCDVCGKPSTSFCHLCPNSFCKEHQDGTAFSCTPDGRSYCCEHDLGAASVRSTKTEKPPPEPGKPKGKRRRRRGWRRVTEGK

Protein Tat = biological target: T3, Protein Tat (Human immunodeficiency virus type 1 group M subtype B (isolate HXB2)(HIV-1), UniProt P04608); assay type: functional;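 note: tat binding to TAR RNA read out by fluorescence polarization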
T3 sequence (P04608 whole entry): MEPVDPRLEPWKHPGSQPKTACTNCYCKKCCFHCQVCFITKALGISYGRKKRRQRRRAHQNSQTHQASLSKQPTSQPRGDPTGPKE

[5] = viability loss in THP-1 monocytes – THP-1 cells, cytotoxicity control for Vif-APOBEC3G degradation inhibitor project, dose response (AID 1117359); assay type: functional; settings: THP-1
[6] = OVCAR-3 cell viability loss – plate reader, dry powder samples, PAX8 inhibitor project, dose response (AID 743044); assay type: functional, cell-based
[7] = OVCAR8 cell viability loss – plate reader, dry powder samples, PAX8 project, dose response (AID 743197); assay type: functional, cell-based; settings: OVCAR-8
[8] = NIH-3T3 fibroblast cytotoxicity, dose response, cytotoxicity control, cell-based, fluorescence, Alamar Blue, secondary assay (AID 2327); assay type: functional;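 note: NIH-3T3 mouse fibroblasts cultured with fluconazole at 8 µg/mL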
[9] = test system: Streptococcus sp. 'group A'; assay: Streptococcus pyogenes SK(-)GAS viability under kanamycin – luminescence, BacTiterGlo, confirmation, counter-screen for streptokinase expression inhibitor project, dose response (AID 1900); assay type: functional, organism-based
[10] = biological target: T4, Heat shock factor protein 1 (Mus musculus, UniProt P38532); assay: decrease of HSF1-responsive luciferase luminescence – cell-based, NIH3T3, dose retest, confirmation (AID 2382); assay type: functional;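 note: NIH3T3 fibroblasts with HSF1-driven luciferase reporter stressed by proteasome inhibitor MG132; luminescence from HSF1-driven luciferase expression after 8 hours of MG132 stress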
T4 sequence (P38532 whole entry): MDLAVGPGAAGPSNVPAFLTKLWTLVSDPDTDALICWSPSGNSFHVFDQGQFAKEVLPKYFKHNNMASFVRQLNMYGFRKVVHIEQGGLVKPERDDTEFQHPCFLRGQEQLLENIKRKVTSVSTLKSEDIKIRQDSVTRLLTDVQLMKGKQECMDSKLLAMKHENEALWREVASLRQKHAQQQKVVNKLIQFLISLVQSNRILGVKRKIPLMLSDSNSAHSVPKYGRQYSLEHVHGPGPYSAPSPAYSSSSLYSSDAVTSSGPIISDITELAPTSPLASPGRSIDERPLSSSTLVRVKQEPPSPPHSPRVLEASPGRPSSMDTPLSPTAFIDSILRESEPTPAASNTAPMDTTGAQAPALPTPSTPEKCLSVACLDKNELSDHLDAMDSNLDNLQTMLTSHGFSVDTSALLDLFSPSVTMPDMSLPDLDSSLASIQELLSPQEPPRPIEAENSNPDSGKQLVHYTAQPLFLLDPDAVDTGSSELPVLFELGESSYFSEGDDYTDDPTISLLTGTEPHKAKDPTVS

Streptokinase A = biological target: T5, Streptokinase A (Streptococcus pyogenes serotype M1, UniProt P10520); assay: viability-normalized secreted streptokinase activity reduction – plasminogen activation absorbance, OD405, dose response (AID 1914); assay type: functional, Streptococcus pyogenes M1 GAS;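 note: secreted streptokinase activity via plasminogen activation per viability signal from cell pellet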
T5 sequence (P10520 whole entry): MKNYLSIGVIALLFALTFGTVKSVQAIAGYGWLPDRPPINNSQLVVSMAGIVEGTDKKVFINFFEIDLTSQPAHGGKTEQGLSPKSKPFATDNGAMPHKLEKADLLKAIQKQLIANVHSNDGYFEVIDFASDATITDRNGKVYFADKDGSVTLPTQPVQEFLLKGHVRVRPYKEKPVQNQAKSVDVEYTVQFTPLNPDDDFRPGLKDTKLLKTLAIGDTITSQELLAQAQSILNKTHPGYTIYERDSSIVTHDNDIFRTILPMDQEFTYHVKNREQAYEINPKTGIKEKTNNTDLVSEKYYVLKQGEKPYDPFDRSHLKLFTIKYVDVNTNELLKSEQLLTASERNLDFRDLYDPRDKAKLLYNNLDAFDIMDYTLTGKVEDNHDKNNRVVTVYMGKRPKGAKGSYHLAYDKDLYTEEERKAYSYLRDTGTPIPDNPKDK

[11] = fluconazole-exposed Candida albicans growth modulators – fluorescence, retest, confirmation (AID 2467); assay type: functional, cell-based
Streptococcus = assay: GAS UMAA2166 growth inhibition – luminescence, BacTiterGlo, counter-screen for streptokinase expression inhibitor project, dose response (AID 1915); assay type: functional, organism-based;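 note: potency for reduction of bacterial viability or growth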

Paired box protein Pax-8, sequence (Q06710 whole entry): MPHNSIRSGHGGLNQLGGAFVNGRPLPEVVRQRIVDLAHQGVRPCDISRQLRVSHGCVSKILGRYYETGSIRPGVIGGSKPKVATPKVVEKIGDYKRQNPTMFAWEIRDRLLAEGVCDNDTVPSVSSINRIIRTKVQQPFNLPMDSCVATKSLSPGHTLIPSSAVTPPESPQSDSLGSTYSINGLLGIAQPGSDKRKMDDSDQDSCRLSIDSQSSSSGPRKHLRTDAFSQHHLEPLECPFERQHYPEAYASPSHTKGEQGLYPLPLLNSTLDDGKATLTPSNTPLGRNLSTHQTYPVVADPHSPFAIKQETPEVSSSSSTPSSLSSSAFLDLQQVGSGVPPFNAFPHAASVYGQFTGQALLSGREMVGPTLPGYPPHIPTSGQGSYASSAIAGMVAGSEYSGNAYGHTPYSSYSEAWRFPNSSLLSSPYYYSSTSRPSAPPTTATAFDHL
Genome polyprotein, sequence (P29990 2492-3391 limits assumed): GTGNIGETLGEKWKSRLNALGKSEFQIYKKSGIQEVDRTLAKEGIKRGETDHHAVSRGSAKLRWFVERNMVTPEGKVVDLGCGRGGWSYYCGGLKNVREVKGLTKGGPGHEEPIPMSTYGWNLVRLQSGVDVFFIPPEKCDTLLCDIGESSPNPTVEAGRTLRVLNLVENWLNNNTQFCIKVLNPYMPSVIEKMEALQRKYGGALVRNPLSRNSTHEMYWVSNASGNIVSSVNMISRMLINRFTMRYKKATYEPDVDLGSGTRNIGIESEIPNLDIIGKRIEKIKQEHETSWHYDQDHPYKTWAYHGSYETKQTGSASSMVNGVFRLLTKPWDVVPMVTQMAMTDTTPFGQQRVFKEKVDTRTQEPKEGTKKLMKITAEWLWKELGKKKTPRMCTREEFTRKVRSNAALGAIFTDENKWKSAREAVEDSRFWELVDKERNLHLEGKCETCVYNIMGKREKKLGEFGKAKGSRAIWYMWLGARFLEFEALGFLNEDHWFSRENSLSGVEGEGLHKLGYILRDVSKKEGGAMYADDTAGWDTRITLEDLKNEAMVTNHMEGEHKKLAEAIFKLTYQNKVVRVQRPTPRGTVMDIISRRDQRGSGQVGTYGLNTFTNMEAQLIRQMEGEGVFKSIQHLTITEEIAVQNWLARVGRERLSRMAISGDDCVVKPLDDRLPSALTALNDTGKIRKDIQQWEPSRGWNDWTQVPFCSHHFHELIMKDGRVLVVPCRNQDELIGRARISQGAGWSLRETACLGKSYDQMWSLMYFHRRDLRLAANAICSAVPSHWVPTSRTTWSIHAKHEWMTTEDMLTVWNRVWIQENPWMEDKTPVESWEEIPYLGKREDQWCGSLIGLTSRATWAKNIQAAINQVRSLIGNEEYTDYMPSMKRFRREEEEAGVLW
Glucose-6-phosphate 1-dehydrogenase, sequence (P11413 whole entry): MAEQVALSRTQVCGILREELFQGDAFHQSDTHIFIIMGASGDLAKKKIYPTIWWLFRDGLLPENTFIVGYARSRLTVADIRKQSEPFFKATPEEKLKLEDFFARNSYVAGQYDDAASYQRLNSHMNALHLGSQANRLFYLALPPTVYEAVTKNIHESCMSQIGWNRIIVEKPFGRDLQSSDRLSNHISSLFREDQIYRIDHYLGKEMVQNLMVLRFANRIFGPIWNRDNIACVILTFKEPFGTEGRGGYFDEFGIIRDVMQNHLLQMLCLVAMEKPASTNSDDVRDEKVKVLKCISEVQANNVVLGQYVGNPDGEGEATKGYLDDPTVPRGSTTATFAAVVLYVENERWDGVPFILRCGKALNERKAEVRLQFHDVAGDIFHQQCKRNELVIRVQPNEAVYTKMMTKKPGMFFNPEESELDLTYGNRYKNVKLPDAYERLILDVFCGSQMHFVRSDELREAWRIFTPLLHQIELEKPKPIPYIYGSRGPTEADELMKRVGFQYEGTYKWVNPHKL
Large T antigen, sequence (P03070 whole entry): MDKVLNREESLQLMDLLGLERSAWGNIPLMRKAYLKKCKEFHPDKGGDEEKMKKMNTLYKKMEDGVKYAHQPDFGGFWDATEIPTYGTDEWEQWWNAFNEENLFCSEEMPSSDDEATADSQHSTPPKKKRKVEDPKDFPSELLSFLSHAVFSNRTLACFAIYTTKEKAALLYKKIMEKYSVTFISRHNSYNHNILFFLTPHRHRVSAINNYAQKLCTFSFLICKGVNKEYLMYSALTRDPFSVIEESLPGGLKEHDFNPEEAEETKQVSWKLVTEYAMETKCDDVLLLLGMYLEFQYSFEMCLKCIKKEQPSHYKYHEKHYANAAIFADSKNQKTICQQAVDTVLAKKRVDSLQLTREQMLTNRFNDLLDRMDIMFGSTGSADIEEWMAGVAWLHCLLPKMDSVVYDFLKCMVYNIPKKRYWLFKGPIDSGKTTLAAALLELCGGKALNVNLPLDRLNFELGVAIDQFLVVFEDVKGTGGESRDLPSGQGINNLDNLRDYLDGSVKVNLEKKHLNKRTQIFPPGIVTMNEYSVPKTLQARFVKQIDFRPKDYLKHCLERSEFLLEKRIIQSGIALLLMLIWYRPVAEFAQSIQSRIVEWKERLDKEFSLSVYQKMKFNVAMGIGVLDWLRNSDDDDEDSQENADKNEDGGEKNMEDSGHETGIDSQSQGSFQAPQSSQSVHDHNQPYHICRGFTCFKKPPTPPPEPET

SMILES: CN(C)N=Nc1[nH]cnc1C(N)=O
- AC50 (Paired box protein Pax-8): 5.34 µM (active)
- IC50 [1]: > 10 µM (inactive)
- IC50 [2]: > 10 µM (inactive)

SMILES: O=C1NC(=O)N(c2ccccc2)C(=O)/C1=C/c1ccc([N+](=O)[O-])s1
- IC50 (Large T antigen): 59.3 µM (active)
- IC50 [3]: 76.7 µM (inactive)
- IC50 (Genome polyprotein): 20.4 µM (active)
- AC50 (Caspase-6): 33.3 µM (active)
- AC50 [4]: > 20 µM (inactive)

SMILES: CC(C)(C)OC(=O)N(Cc1ccccc1)Cc1cccc(OCc2cccc(NC(=O)c3ccccc3)c2)c1
- IC50 (Protein Tat): > 100 µM (active)
- CC50 [5]: > 40 µM (active)

SMILES: COc1ccccc1NC(=O)N1CCCCN2[C@H](C1)[C@@H](c1ccc(-c3cccc(C#N)c3)cc1)[C@@H]2CO
- AC50 (Paired box protein Pax-8): 11.6 µM (active)
- AC50 [6]: 23.2 µM (active)
- AC50 [7]: > 70 µM (inactive)

SMILES: CC(=O)[C@]1(O)Cc2c(O)c3c(c(O)c2[C@@H](O[C@H]2C[C@H](N)[C@H](O)[C@H](C)O2)C1)C(=O)c1ccccc1C3=O [IDARUBICIN HYDROCHLORIDE]
- EC50 [8]: 0.178 µM (inconclusive)
- EC50 [9]: 1.07 µM (active)
- EC50 [10]: 3.01 µM (inconclusive)
- EC50 (Streptokinase A): > 150 µM (not active)
- EC50 [11]: > 38 µM (not active)
- EC50 (Streptococcus): 2.6 µM (active)
- IC50 [1]: 0.0111 µM (active)
- IC50 [2]: > 10 µM (inactive)
